The results in this text go back to patent US8524705B2, “2-oxo-2-(2-phenyl-5,6,7,8-tetrahydro-indolizin-3-yl)-acetamide derivatives and related compounds as antifungal agents” (F2G Limited British Body Corporate, priority 2007, dated 2013).

In brackets after ≈: the same amount, converted by molar mass.

What all share (type): cell-based
Holding throughout (conditions): banded into grades

For one test, the system named is Aspergillus flavus. Description: Measurement of Minimum Inhibitory Concentrations (MICs), A. flavus. As for the experimental part: (§1) Between 1 and 5 mgs of compound were accurately weighed out into a sterile Eppendorf tube. The compound was dissolved in DMSO to give a solution containing 5 mg/mL. Tubes were stored at −20° C. until required. On the day of testing thawed solutions were vortex mixed to ensure homogeneity. 30 μL of solution was removed and added to 570 μL of sterile water in a separate sterile Eppendorf. The thoroughly mixed solution was used to prepare a series of doubling dilutions in water, in a deep well plate. […] replicate plates were prepared using a Minitrak by aspirating […] from each well into eleven clear polystyrene 96 well plates. Spores of Aspergillus spp. (Aspergillus fumigatus [two strains], Aspergillus terreus [two strains], Aspergillus niger and Aspergillus flavus) were harvested from cultures grown on Sabarauds agar for 5 days, and resuspended in PBS/Tween 80 to approx 1×10^7 cfu/mL. Each organism suspension was diluted in YAG medium (1% glucose, 1% ammonium chloride and 0.5% yeast extract) to 0.5-2×10^4 cfu/mL. 80 μL of an organism suspension was added to each well of the plate containing drug dilutions. This produced MIC plates with a drug range 50-0.05 mg/L and organism inocula of 1−2×10^4 cfu/mL for Aspergillus spp. All plates were incubated for 24 hrs at 35° C. Growth was assessed by monitoring the optical density at 485 nm for each well. The MIC of a compound is the lowest drug concentration that inhibits growth of an organism by >70% compared with a drug free control. MICs are recorded as mg/L. In cases where the MIC of an organism is >=0.05 mg/L the MIC is repeated using a concentration range of 0.5-0.0005 mg/L. Other growth media can be used for susceptibility testing, and the activity of the described compounds was also assessed in RPMI medium containing 2% glucose, and 0.135M MOPS buffer. MIC tests in YAG medium have more clear-cut endpoints and have slightly lower MICs than those performed in RPMI medium. The following organisms were tested: Aspergillus flavus, Aspergillus fumigatus AF293 and AF210, Aspergillus niger and Aspergillus terreus AT4 and AT49.

Test [1] concerns Aspergillus fumigatus AF293. Put plainly: Measurement of Minimum Inhibitory Concentrations (MICs), A. fumigatus. The procedure:
as §1

For test [2], the system named is Aspergillus fumigatus AF210. Put plainly: Measurement of Minimum Inhibitory Concentrations (MICs), A. fumigatus 210. As for the experimental part: as §1
The next test deals with Aspergillus niger. Description: Measurement of Minimum Inhibitory Concentrations (MICs), A. niger. As for the experimental part: as §1
Another test has as its system Aspergillus terreus AT4. Put plainly: Measurement of Minimum Inhibitory Concentrations (MICs), A. terreus. The procedure: as §1
The subject of another test is Aspergillus terreus AT49. Description: Measurement of Minimum Inhibitory Concentrations (MICs), A. terreus 49. The procedure:
as §1

Where [3] appears, read: RPMI medium containing 2% glucose, 0.135M MOPS buffer.
The mark [4] stands for this setting: YAG medium, 24 hrs at 35° C., >70% growth inhibition.

A word on the MIC: it is the smallest concentration in the dilution series that meets the test's criterion for growth inhibition. The low end stands for greater potency, the high end for weaker potency.

As for `C=C(C)CN1CCN(c2ccc(NC(=O)C(=O)c3c(-c4ccccc4)cc4n3CCCC4)cc2)CC1` [Example 1, N-{4-[4(2-methyl-allyl)-piperazin-1-yl]-phenyl}-2-oxo-2-(2-phenyl-5,6,7,8-tetrahydro-indolizin-3-yl)-acetamide], the MIC (in the test with Aspergillus flavus (setting [3]); in the test on Aspergillus flavus (setting [4]); in test [1] (setting [3]); in test [1] (setting [4]); in test [2] (setting [3]); in test [2] (setting [4])) was less than 1 µg/mL each time. The MIC in the test with Aspergillus niger (setting [3]), against Aspergillus niger (setting [4]), against Aspergillus terreus AT4 (setting [3]), with Aspergillus terreus AT4 (setting [4]), in the test with Aspergillus terreus AT49 (setting [3]) and against Aspergillus terreus AT49 (setting [4]) was less than 1 µg/mL each time.
On to `CC(C)(C)CN1CCN(c2ccc(NC(=O)C(=O)c3c(-c4ccccc4)cc4n3CCCC4)cc2)CC1` [Example 2, N-{4-[4-(2,2-dimethyl-propyl)-piperazin-1-yl]-phenyl}-2-oxo-2-(2-phenyl-5,6,7,8-tetrahydro-indolizin-3-yl)-acetamide], for which the MIC (in the test with Aspergillus flavus (setting [3]); against Aspergillus flavus (setting [4]); in test [1] (setting [3]); in test [1] (setting [4]); in test [2] (setting [3]); in test [2] (setting [4])) was less than 1 µg/mL throughout. Further, the MIC in the test on Aspergillus niger (setting [3]), with Aspergillus niger (setting [4]), against Aspergillus terreus AT4 (setting [3]), in the test with Aspergillus terreus AT4 (setting [4]), against Aspergillus terreus AT49 (setting [3]) and with Aspergillus terreus AT49 (setting [4]) was less than 1 µg/mL throughout.
`Cc1cc(C)nc(N2CCN(c3ccc(NC(=O)C(=O)c4c(-c5ccccc5)cc5n4CCCC5)cc3)CC2)c1` [Example 3, N-{4-[4-(4,6-dimethyl-pyridin-2-yl)-piperazin-1-yl]-phenyl}-2-oxo-2-(2-phenyl-5,6,7,8-tetrahydro-indolizin-3-yl)-acetamide]: the MIC (in the test on Aspergillus flavus (setting [3]); in the test on Aspergillus flavus (setting [4]); in test [1] (setting [3]); in test [1] (setting [4]); in test [2] (setting [3]); in test [2] (setting [4])) was less than 1 µg/mL in each case. Moreover, the MIC against Aspergillus niger (setting [3]), in the test with Aspergillus niger (setting [4]), against Aspergillus terreus AT4 (setting [3]), in the test on Aspergillus terreus AT4 (setting [4]), in the test on Aspergillus terreus AT49 (setting [3]) and against Aspergillus terreus AT49 (setting [4]) was less than 1 µg/mL throughout.
Consider `Cc1cc(C)nc(N2CCN(c3ccc(NC(=O)C(=O)c4c(C5CCCC5)cc5n4CCCC5)cc3)CC2)c1` [Example 4, 2-(2-cyclopentyl-5,6,7,8-tetrahydro-indolizin-3-yl)-N-{4-[4-(4,6-dimethyl-pyridin-2-yl)-piperazin-1-yl]-phenyl}-2-oxo-acetamide], for which the MIC (with Aspergillus flavus (setting [3]); against Aspergillus flavus (setting [4]); in test [1] (setting [3]); in test [1] (setting [4]); in test [2] (setting [3]); in test [2] (setting [4])) was less than 1 µg/mL throughout. Further, the MIC against Aspergillus niger (setting [3]), in the test with Aspergillus niger (setting [4]), in the test on Aspergillus terreus AT4 (setting [3]), against Aspergillus terreus AT4 (setting [4]), in the test on Aspergillus terreus AT49 (setting [3]) and in the test with Aspergillus terreus AT49 (setting [4]) was less than 1 µg/mL in each case.
In the case of `Cc1cc(C)nc(N2CCCN(c3ccc(NC(=O)C(=O)c4c(-c5ccccc5)cc5n4CCCC5)cc3)CC2)c1` [Example 5, N-{4-[4-(4,6-dimethyl-pyridin-2-yl)-[1,4]diazepan-1-yl]-phenyl}-2-oxo-2-(2-phenyl-5,6,7,8-tetrahydro-indolizin-3-yl)-acetamide], the MIC (against Aspergillus flavus (setting [3]); in the test with Aspergillus flavus (setting [4]); in test [1] (setting [3]); in test [1] (setting [4]); in test [2] (setting [3]); in test [2] (setting [4])) was less than 1 µg/mL in each case. Further, the MIC in the test with Aspergillus niger (setting [3]), against Aspergillus niger (setting [4]), against Aspergillus terreus AT4 (setting [3]), with Aspergillus terreus AT4 (setting [4]), in the test with Aspergillus terreus AT49 (setting [3]) and in the test on Aspergillus terreus AT49 (setting [4]) was less than 1 µg/mL each time.
In the case of `Cc1cc(C)nc(N2CCN(c3ccc(N(C)C(=O)C(=O)c4c(-c5ccccc5)cc5n4CCCC5)cc3)CC2)c1` [Example 6, N-{4-[4-(4,6-dimethyl-pyridin-2-yl)-piperazin-1-yl]-phenyl}-N-methyl-2-oxo-2-(2-phenyl-5,6,7,8-tetrahydro-indolizin-3-yl)-acetamide], the MIC in the test with Aspergillus flavus (setting [3]) is greater than 10 µg/mL; in the test with Aspergillus flavus (setting [4]) it was greater than 10 µg/mL; in test [1] (setting [3]), greater than 10 µg/mL; in test [1] (setting [4]), 1 to 10 µg/mL (≈ 1.83 to 18.3 µM); in test [2] (setting [3]), greater than 10 µg/mL; in test [2] (setting [4]), 1 to 10 µg/mL (≈ 1.83 to 18.3 µM). The MIC is greater than 10 µg/mL against Aspergillus niger (setting [3]); greater than 10 µg/mL against Aspergillus niger (setting [4]); greater than 10 µg/mL in the test with Aspergillus terreus AT4 (setting [3]); greater than 10 µg/mL in the test on Aspergillus terreus AT4 (setting [4]); greater than 10 µg/mL against Aspergillus terreus AT49 (setting [3]); 1 to 10 µg/mL (≈ 1.83 to 18.3 µM) in the test on Aspergillus terreus AT49 (setting [4]).
Regarding `Cc1cc(C)nc(N(C)CCN(C)c2ccc(NC(=O)C(=O)c3c(-c4ccccc4)cc4n3CCCC4)cc2)c1` [Example 7, N-[4-({2-[(4,6-Dimethyl-pyridin-2-yl)-methyl-amino]-ethyl}-methyl-amino)-phenyl]-2-oxo-2-(2-phenyl-5,6,7,8-tetrahydro-indolizin-3-yl)-acetamide], the MIC (against Aspergillus flavus (setting [3]); against Aspergillus flavus (setting [4]); in test [1] (setting [3]); in test [1] (setting [4]); in test [2] (setting [3]); in test [2] (setting [4])) was less than 1 µg/mL in each case. For the same compound, the MIC with Aspergillus niger (setting [3]), against Aspergillus niger (setting [4]), with Aspergillus terreus AT4 (setting [3]), against Aspergillus terreus AT4 (setting [4]), in the test with Aspergillus terreus AT49 (setting [3]) and in the test on Aspergillus terreus AT49 (setting [4]) was less than 1 µg/mL throughout.
Consider `COc1cc(C)nc(N2CCN(c3ccc(NC(=O)C(=O)c4c(-c5ccccc5)cc5n4CCCC5)cc3)CC2)c1` [Example 8, N-{4-[4-(4-Methoxy-6-methyl-pyridin-2-yl)-piperazin-1-yl]-phenyl}-2-oxo-2-(2-phenyl-5,6,7,8-tetrahydro-indolizin-3-yl)-acetamide], for which the MIC was 1 to 10 µg/mL (≈ 1.82 to 18.2 µM) with Aspergillus flavus (setting [3]); less than 1 µg/mL in the test with Aspergillus flavus (setting [4]); less than 1 µg/mL in test [1] (setting [3]); less than 1 µg/mL in test [1] (setting [4]); 1 to 10 µg/mL (≈ 1.82 to 18.2 µM) in test [2] (setting [3]); less than 1 µg/mL in test [2] (setting [4]). Also, the MIC in the test with Aspergillus niger (setting [3]) was 1 to 10 µg/mL (≈ 1.82 to 18.2 µM); in the test on Aspergillus niger (setting [4]) it was 1 to 10 µg/mL (≈ 1.82 to 18.2 µM); against Aspergillus terreus AT4 (setting [3]), less than 1 µg/mL; in the test with Aspergillus terreus AT4 (setting [4]), less than 1 µg/mL; with Aspergillus terreus AT49 (setting [3]), less than 1 µg/mL; in the test with Aspergillus terreus AT49 (setting [4]), less than 1 µg/mL.
In the case of `Cc1cc(C)nc(OCCOc2ccc(NC(=O)C(=O)c3c(-c4ccccc4)cc4n3CCCC4)cc2)c1` [Example 9, N-{4-[2-(4,6-Dimethyl-pyridin-2-yloxy)-ethoxy]-phenyl}-2-oxo-2-(2-phenyl-5,6,7,8-tetrahydro-indolizin-3-yl)-acetamide], the MIC (in the test with Aspergillus flavus (setting [3]); against Aspergillus flavus (setting [4]); in test [1] (setting [3]); in test [1] (setting [4]); in test [2] (setting [3]); in test [2] (setting [4])) was less than 1 µg/mL in each case. In addition, the MIC in the test on Aspergillus niger (setting [3]), with Aspergillus niger (setting [4]), in the test on Aspergillus terreus AT4 (setting [3]), with Aspergillus terreus AT4 (setting [4]), in the test with Aspergillus terreus AT49 (setting [3]) and with Aspergillus terreus AT49 (setting [4]) was less than 1 µg/mL in each case.
Regarding `Cc1cc(C)nc(N2CCN(c3ccc(NC(=O)C(=O)c4c(C5CCOCC5)cc5n4CCCC5)cc3)CC2)c1` [Example 10, N-{4-[4-(4,6-Dimethyl-pyridin-2-yl)-piperazin-1-yl]-phenyl}-2-oxo-2-[2-(tetrahydro-pyran-4-yl)-5,6,7,8-tetrahydro-indolizin-3-yl]-acetamide], the MIC (in the test with Aspergillus flavus (setting [3]); against Aspergillus flavus (setting [4]); in test [1] (setting [3]); in test [1] (setting [4]); in test [2] (setting [3]); in test [2] (setting [4])) was less than 1 µg/mL in each case. Further, the MIC with Aspergillus niger (setting [3]), with Aspergillus niger (setting [4]), with Aspergillus terreus AT4 (setting [3]), in the test on Aspergillus terreus AT4 (setting [4]), against Aspergillus terreus AT49 (setting [3]) and in the test on Aspergillus terreus AT49 (setting [4]) was less than 1 µg/mL in each case.
In the case of `Cc1cc(C)nc(N2CCN(c3ccc(NC(=O)C(=O)c4c(C5CCN(C)CC5)cc5n4CCCC5)cc3)CC2)c1` [Example 11, N-{4-[4-(4,6-Dimethyl-pyridin-2-yl)-piperazin-1-yl]-phenyl}-2-[2-(1-methyl-piperidin-4-yl)-5,6,7,8-tetrahydro-indolizin-3-yl]-2-oxo-acetamide], the MIC (against Aspergillus flavus (setting [3]); against Aspergillus flavus (setting [4]); in test [1] (setting [3]); in test [1] (setting [4]); in test [2] (setting [3]); in test [2] (setting [4])) was greater than 10 µg/mL in each case. For the same compound, the MIC in the test on Aspergillus niger (setting [3]), in the test on Aspergillus niger (setting [4]), against Aspergillus terreus AT4 (setting [3]), with Aspergillus terreus AT4 (setting [4]), in the test on Aspergillus terreus AT49 (setting [3]) and with Aspergillus terreus AT49 (setting [4]) was greater than 10 µg/mL each time.
